{
  "source": "paper PMC10692721",
  "about": "“Drug discovery for heart failure targeting myosin-binding protein C” (The Journal of Biological Chemistry, 2023)",
  "test_system": "rabbit fast skeletal (psoas) myofibrils",
  "test": "Skeletal myofibril ATPase assay",
  "type": "biochemical",
  "conditions": "50 μM compound, pCa 8 to pCa 4",
  "procedure": "Rabbit psoas and bovine cardiac myofibrils were prepared as described in our previous study ([17]). An enzyme-coupled, NADH-linked ATPase assay was used to measure skeletal and cardiac myofibril ATPase activity in 96-well microplates at 23 °C. Ionic strength was maintained below 0.2 M, so myofilaments remained insoluble and stable ([32]). To achieve optimal enzymatic activities, buffers for skeletal and cardiac myofibrils differed slightly ([33], [34]): skeletal in 50 mM MOPS, 100 mM KCl, 5 mM MgCl2, 1 mM EGTA, pH 7.0; cardiac in 20 mM MOPS, 35 mM NaCl, 5 mM MgCl2, 1 mM EGTA, pH 7.0. Each well in the microplate contained an assay mix of 0.84 mM phosphoenolpyruvate, 0.17 mM NADH, 10 U/vol pyruvate kinase, 20 U/vol lactate dehydrogenase. The concentration of free Ca^2+ was controlled by EGTA buffering ([35]). Myofibrils were dispensed in microplates with a multichannel pipette and were incubated with assay mix plus compound of interest for 20 min at 23 °C. The concentration of myofibrils used was 0.01 mg/ml for skeletal and 0.05 mg/ml for cardiac myofibrils. The assay was started upon the addition of ATP, at a final concentration of 2.1 mM (total volume to 200 μl), and absorbance was recorded at 340 nm in a SpectraMax Plus microplate spectrophotometer from Molecular Devices. The steady-state myofibrillar ATPase rate was measured from NADH oxidation, measured as the rate of decrease in absorption at 340 nm for 30 min, with absorption data collected every 15 s. All data and statistical analysis of steady-state kinetics were conducted with the OriginPro program. The results were fitted with the Hill equation:(6) V=V0+(Vmax/1+10^−n∗^(pCa50−pCa)) where V is the ATPase rate and n is the Hill coefficient.\nATPase activity is reported on the μmol ATP/mg protein/min scale. Average data are presented as mean ± SD. Sample means are derived from three different myofibril preps (N = 3), each done in duplicate (n = 6).\nThe effects of compounds on ATPase activity of myofibrils were determined in the presence of 50 μM compound, across a 12-point pCa range from 4.0 (activation) to 8.0 (relaxation). The calcium sensitivity (pCa50) was determined by fitting the curves to the Hill equation. In all experiments, a 1% DMSO-only control was included. The normalized ATPase activity of the selected compounds can be found in Figure 6.",
  "note": "“Also recorded” adds a separate entry of the source. *1 amine or outer side, *2 acyl side, *3 side chain or, on linkers, in order; H or OH if unused. Where a SMILES comes first, the peptide text is derived from it. Bridges are numbered along the chain shown (N, C = ends). [ ]: non-standard residue; d: D form. The star is where a group is joined. Orn(4R-OH,5R-OH) = O=C([C@H](C[C@@H](O)[C@@H](O)N[*:3])N[*:1])[*:2]; Tetradecanoyl(10R,12S-Me2) = CC[C@H](C)C[C@H](C)CCCCCCCCC(=O)*; hTyr(3S-OH,4S-OH) = N[C@H](C(=O)O)[C@H](O)[C@@H](O)c1ccc(O)cc1; Gln(3R-OH) = NC(=O)C[C@@H](O)[C@H](N)C(=O)O; Pro(3S-OH) = O=C(O)[C@H]1NCC[C@@H]1O; Hyp = O=C(O)[C@@H]1C[C@@H](O)CN1",
  "data": [
    {"smiles": "CC[C@H](C)C[C@H](C)CCCCCCCCC(=O)N[C@H]1C[C@@H](O)[C@@H](O)NC(=O)[C@@H]2[C@@H](O)CCN2C(=O)[C@H]([C@H](O)CC(N)=O)NC(=O)[C@H]([C@H](O)[C@@H](O)c2ccc(O)cc2)NC(=O)[C@@H]2C[C@@H](O)CN2C(=O)[C@H]([C@@H](C)O)NC1=O", "note": "[Pneumocandin B0] ({Tetradecanoyl(10R,12S-Me2)}-[Orn(4R-OH,5R-OH)]T[Hyp][hTyr(3S-OH,4S-OH)][Gln(3R-OH)][Pro(3S-OH)]; lactam 1-C)", "values": [
      {"measurement": "effect on skeletal MF ATPase activity (in words)", "result": "inhibitory effect; also recorded: affected ATPase"}
    ]}
  ]
}
